IC50 data for 9 molecules are collected here from patent publication US20140107109A1, “AMINO-DIHYDROTHIAZINE AND AMINO-DIOXIDO DIHYDROTHIAZINE COMPOUNDS AS BETA-SECRETASE ANTAGONISTS AND METHODS OF USE” (Amgen Inc., priority 2012, published 2014).

Each structure is given as a SMILES string. Like-named read-outs stand apart in the source and are kept apart here.

In assay [1] the target is Beta Secretase enzyme (BACE1) (Homo sapiens, UniProt P56817). Briefly: In vitro enzymatic BACE FRET assay. The following applies: read-out: BACE1 FRET assay IC50. It counts as biochemical. The essentials: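 Readout: dequenched fluorescence (ex 488 nm/[…]) after neutralizing with Tris buffer. Reactions, begun by adding 50 nM quenched peptide substrate spanning the BACE cleavage site, were incubated one hour at pH 4.2 in 0.05 M acetate with 100 uM genapol and 10% final DMSO.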

In assay [2] the test system is Aβ40 in conditioned medium of cells stably expressing Amyloid Precursor Protein (APP). Briefly: In vitro BACE cell-based assay (HEK cell assay), Aβ40 sandwich ELISA. The following applies: Homo sapiens, HEK293. The essentials: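 Aβ40 in conditioned medium was quantified by time-resolved fluorescence sandwich ELISA (pAb40 capture 3 h at 4 °C, biotin-6E10 detection 2 h at 4 °C) after 24 h compound exposure of APP-expressing cells. Doses spanned 10 points from 100 μM or 10 μM top, 0.1% DMSO; IC50 was derived from percent of control.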
Background: In an ELISA, binding on a coated surface is turned into a signal by an enzyme label.

In a further assay the target is T1, Cathepsin D (Cat D) (Homo sapiens, UniProt P07339).
T1 construct: Recombinant Cat D was expressed in CHO cells; made in house; host or cells: CHO cells
Briefly: In vitro enzymatic Cathepsin D (Cat D) FRET assay. The class given is biochemical. The settings on record: read-out: CatD IC50. The essentials: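 FRET read-out: a fluorophore/quencher-labelled peptide substrate is cleaved by 9 nM Cat D (recombinant, CHO-expressed) following a one-hour preincubation with inhibitor dilutions in DMSO. Tris buffer added to neutralize pH ends the reaction before fluorescence measurement.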

The term IC50 denotes the concentration that inhibits the measured activity by half.

T1 sequence (P07339 65-412, species assumed): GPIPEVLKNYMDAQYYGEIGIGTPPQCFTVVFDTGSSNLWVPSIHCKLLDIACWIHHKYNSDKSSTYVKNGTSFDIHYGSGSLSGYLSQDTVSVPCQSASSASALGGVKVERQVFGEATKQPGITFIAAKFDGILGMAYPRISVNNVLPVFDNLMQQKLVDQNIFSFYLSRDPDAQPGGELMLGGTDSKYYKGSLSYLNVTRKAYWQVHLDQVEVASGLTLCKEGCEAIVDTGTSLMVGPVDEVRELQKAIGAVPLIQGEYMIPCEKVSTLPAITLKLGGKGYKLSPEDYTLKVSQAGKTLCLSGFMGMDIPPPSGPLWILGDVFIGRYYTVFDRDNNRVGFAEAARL
Sequence of Beta Secretase enzyme (BACE1) (P56817 46-501): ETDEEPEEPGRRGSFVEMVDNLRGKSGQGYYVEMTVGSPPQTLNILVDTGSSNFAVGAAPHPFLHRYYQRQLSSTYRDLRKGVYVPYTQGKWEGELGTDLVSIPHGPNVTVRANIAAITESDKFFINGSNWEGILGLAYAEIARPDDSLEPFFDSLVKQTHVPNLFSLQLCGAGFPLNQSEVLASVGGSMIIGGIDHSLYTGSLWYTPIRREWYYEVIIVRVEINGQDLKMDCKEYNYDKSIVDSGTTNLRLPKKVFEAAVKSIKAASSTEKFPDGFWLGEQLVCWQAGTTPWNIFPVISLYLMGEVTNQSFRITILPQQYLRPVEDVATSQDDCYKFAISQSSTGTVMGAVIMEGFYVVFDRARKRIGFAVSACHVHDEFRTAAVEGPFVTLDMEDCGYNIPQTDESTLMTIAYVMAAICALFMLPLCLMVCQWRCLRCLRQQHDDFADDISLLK

In the case of `Cc1cc(OC(F)F)cnc1C(=O)Nc1ccc(F)c([C@@]2(C)N=C(N)C3(CC3)S(=O)(=O)[C@H]2F)c1` [Example 203, N-(3-((5R,6R)-8-amino-5-fluoro-6-methyl-4,4-dioxido-4-thia-7-azaspiro[2.5]oct-7-en-6-yl)-4-fluorophenyl)-5-(difluoromethoxy)-3-methyl-2-pyridinecarboxamide], the IC50 worked out at 0.48 nM in assay [1] (average IC50); 2.3 nM in assay [2] (average IC50, HEK cells); 30200 nM at Cathepsin D (Cat D).
`COc1cnc(C(=O)Nc2ccc(F)c([C@]3(C)CS(=O)(=O)C(C)(C)C(N)=N3)n2)cn1` [Example 40, (R)—N-(6-(5-amino-3,6,6-trimethyl-1,1-dioxido-3,6-dihydro-2H-1,4-thiazin-3-yl)-5-fluoropyridin-2-yl)-5-methoxypyrazine-2-carboxamide]: the IC50 in assay [1] is 8200 nM; in assay [2] (Aβ40, 24 h incubation), 6980 nM; at Cathepsin D (Cat D), greater than 400000 nM.
For `CC1(C)C(N)=N[C@](C)(c2cc(Nc3nccc4cc(OCC5CC5)cnc34)ccc2F)CS1(=O)=O` [Example 260, N-(3-((3R)-5-amino-3,6,6-trimethyl-1,1-dioxido-3,6-dihydro-2H-1,4-thiazin-3-yl)-4-fluorophenyl)-3-(cyclopropylmethoxy)-1,7-naphthyridin-8-amine], the IC50 in assay [1] (average IC50, enzyme assay) turned out to be 3.8 nM; in assay [2] (average IC50, cell assay) it was 7.5 nM; at Cathepsin D (Cat D) it was 250000 nM.
`CC1(C)C(N)=N[C@](C)(c2cc(Nc3nccc4nc(O)cnc34)cc(F)c2F)CS1(=O)=O` [Example 71, (R)-5-Amino-3-(2,3-difluoro-5-((2-hydroxypyrido[3,4-b]pyrazin-5-yl)amino)phenyl)-3,6,6-trimethyl-3,6-dihydro-2H-1,4-thiazine 1,1-dioxide]: the IC50 in assay [1] was 3.7 nM; in assay [2] (Aβ40, 24 h incubation), 47.4 nM; on Cathepsin D (Cat D), 45200 nM.
For the molecule `Cc1cc(OC(F)F)cnc1C(=O)Nc1ccc(F)c([C@]2(C)CS(=O)(=O)C(C)(C)C(N)=N2)c1` [Example 144, (R)—N-(3-(5-amino-3,6,6-trimethyl-1,1-dioxido-3,6-dihydro-2H-1,4-thiazin-3-yl)-4-fluorophenyl)-5-(difluoromethoxy)-3-methylpicolinamide], the figures for the IC50 (in assay [1]; in assay [2]; on Cathepsin D (Cat D)) were 0.6 nM, 1.6 nM and 96700 nM, respectively.
Consider `CC1(C)C(N)=N[C@](C)(c2cc(Nc3c(Cl)sc4cc(C#N)cnc34)ccc2F)CS1(=O)=O` [Example 167, (R)-3-((3-(5-amino-3,6,6-trimethyl-1,1-dioxido-3,6-dihydro-2H-1,4-thiazin-3-yl)-4-fluorophenyl)-amino)-2-chlorothieno[3,2-b]pyridine-6-carbonitrile], for which the IC50 in assay [1] was 13.9 nM; in assay [2], 1440 nM; at Cathepsin D (Cat D) it was 11800 nM.
In the case of `COc1cnc2c(Nc3ccc(F)c([C@]4(C)CS(=O)(=O)C(C)(C)C(N)=N4)c3)nccc2c1` [Example 46, N-(3-((3R)-5-amino-3,6,6-trimethyl-1,1-dioxido-3,6-dihydro-2H-1,4-thiazin-3-yl)-4-fluorophenyl)-3-methoxy-1,7-naphthyridin-8-amine], the IC50 amounted to 5.4 nM in assay [1]; 4 nM in assay [2] (Aβ40, 24 h incubation); 397000 nM on Cathepsin D (Cat D).
For `COc1cnc2c(Nc3ccc(F)c(C4(C(F)F)CS(=O)(=O)C(C)(C)C(N)=N4)c3)nccc2c1` (stereo not drawn) [Example 62, N-(3-(5-amino-3-(difluoromethyl)-6,6-dimethyl-1,1-dioxido-3,6-dihydro-2H-1,4-thiazin-3-yl)-4-fluorophenyl)-3-methoxy-1,7-naphthyridin-8-amine], the IC50 in assay [1] is 241 nM; in assay [2] (Aβ40, 24 h incubation), 1820 nM; at Cathepsin D (Cat D) it was greater than 400000 nM.
For `C[C@@]1(c2cc(Nc3nccc4cc(Cl)cnc34)ccc2F)CS(=O)(=O)C2(CCC2)C(N)=N1` [Example 116, (R)-9-amino-7-(5-((3-chloro-1,7-naphthyridin-8-yl)amino)-2-fluorophenyl)-7-methyl-5-thia-8-azaspiro[3.5]non-8-ene 5,5-dioxide], the half-maximal inhibitory concentration (IC50) was found to be 1.15 nM in assay [1] (average IC50, enzyme assay); 26.3 nM in assay [2] (average IC50, cell assay); 38800 nM at Cathepsin D (Cat D).
